Data: US8748661B2, “Polyamino polyketide antibiotics and uses thereof” (priority 2008, dated 2014)
Converted amounts (≈) assume the structure as drawn.

Legend:
Assay type in all cases: cell-based
[1] = tested on: Escherichia coli strain DH5α; experiment: Antibiotic bioassay (agar well inhibition zone); settings: 20 microliters of fraction in 4-mm wells, 37° C. overnight
Procedure: The bactericidal activity was assayed using Escherichia coli strain DH5α following the method described previously by Zhang et al. (Zhang et al. (1998). Factors affecting biosynthesis by Xanthomonas albilineans of albicidin antibiotics and phytotoxins. J. Appl. Microbiol. 85: 1023-1028). Briefly, an overnight LB culture of strain DH5α was diluted by 10-fold in sterilized water, and 100 microliters of the dilute were added to 5 ml of 1% agarose solution, which was autoclaved with temperature being maintained at 50° C. The bioassay plate was prepared by adding the mixture onto a plate containing 20 ml LB agar. Bioassay was conducted by adding 20 microliters of bacterial supernatants or fractions to the 4-mm diameter wells in bioassay plate. The plate was incubated at 37° C. overnight before examination of inhibition zone.

[2] = tested on: Gram-negative and Gram-positive bacterial pathogens; experiment: MIC on a range of bacterial pathogens (summary statement); settings: summary of Table 3, in words
Procedure: (§1) The minimum inhibition concentration (MIC) of zeamine I was carried out according to the NCCLS guidelines (4). Briefly, 96-well plates containing 2-fold serial dilutions of zeamine I and control antibiotics were prepared with LB liquid medium. The fresh overnight LB cultures of tested bacterial strains were then inoculated to the above plates after dilution to yield a final density of 10^6 CFU/ml and 10^7 CFU/ml, respectively. The plates were then incubated with gentle shaking at 30° C. or 37° C. depending on the preferred growth temperature of the tested strains. After 24 h, the plates were collected to measure OD600. The MIC was defined as the lowest concentration of the antibiotic allowing no visible growth. The MIC assay was repeated twice each time with triplicate.
The minimum inhibition concentration (MIC) of zeamine I was determined on a range of bacterial pathogens. […] In contrast, a high dosage of ampicillin, which is a commonly used antibiotic, was required to inhibit the growth of these bacterial pathogens.

Salmonella enterica = experiment: MIC determination (NCCLS, 96-well, LB); settings: 24 h
Procedure: as §1

Bacillus cereus XJ8 = experiment: MIC determination (NCCLS, 96-well, LB); settings: 1 × 10^6 CFU/ml in LB, 30° C., 24 h
Procedure: as §1

E. coli CFT073 = experiment: MIC determination (NCCLS, 96-well, LB); settings: Escherichia coli, 1 × 10^6 CFU/ml in LB, 30° C., 24 h
Procedure: as §1

[3] = tested on: Staphylococcus aureus BBA-41; experiment: MIC determination (NCCLS, 96-well, LB); settings: BBA41, 1 × 10^6 CFU/ml in LB, 30° C., 24 h
Procedure: as §1

[4] = tested on: Burkholderia cepacia H111; experiment: MIC determination (NCCLS, 96-well, LB); settings: 1 × 10^6 CFU/ml in LB, 30° C., 24 h
Procedure: as §1

E. coli DH5α = experiment: MIC determination (NCCLS, 96-well, LB); settings: Escherichia coli, 1 × 10^6 CFU/ml in LB, 30° C., 24 h
Procedure: as §1

[5] = tested on: Burkholderia cepacia J2315; experiment: MIC determination (NCCLS, 96-well, LB); settings: 1 × 10^6 CFU/ml in LB, 30° C., 24 h
Procedure: as §1

[6] = tested on: Pseudomonas aeruginosa PAO1; experiment: MIC determination (NCCLS, 96-well, LB); settings: 1 × 10^6 CFU/ml in LB, 30° C., 24 h
Procedure: as §1

[7] = tested on: Enterobacter aerogenes ATCC 13048; experiment: MIC determination (NCCLS, 96-well, LB); settings: Klebsiella aerogenes, ATCC13048, 1 × 10^6 CFU/ml in LB, 30° C., 24 h
Procedure: as §1

Aeromonas hydrophila = experiment: MIC determination (NCCLS, 96-well, LB); settings: 1 × 10^6 CFU/ml in LB, 30° C., 24 h
Procedure: as §1

[8] = tested on: Staphylococcus aureus ATCC 25531; experiment: MIC determination (NCCLS, 96-well, LB); settings: ATCC25531, 1 × 10^6 CFU/ml in LB, 30° C., 24 h
Procedure: as §1

Klebsiella pneumonia = experiment: MIC determination (NCCLS, 96-well, LB); settings: Klebsiella pneumoniae, 1 × 10^6 CFU/ml in LB, 30° C., 24 h
Procedure: as §1

[9] = tested on: Pseudomonas aeruginosa PA14; experiment: MIC determination (NCCLS, 96-well, LB); settings: 1 × 10^6 CFU/ml in LB, 30° C., 24 h
Procedure: as §1

| SMILES | antibiotic activity of HPLC fraction in bioassay [1] | dosage required to inhibit the growth of these bacterial pathogens [2] | MIC (Salmonella enterica) | MIC (Bacillus cereus XJ8) | MIC (E. coli CFT073) | MIC [3] | MIC [4] | MIC (E. coli DH5α) | MIC [5] | MIC [6] | MIC [7] | MIC (Aeromonas hydrophila) | MIC [8] | MIC (Klebsiella pneumonia) | MIC [9] |
| --- | --- | --- | --- | --- | --- | --- | --- | --- | --- | --- | --- | --- | --- | --- | --- |
| CCCCCC(N)CCCCCCCC(N)CCCCCCCC(N)CCCCCCCC(N)CCCCCCCC(O)CCN (stereo not drawn) [Zeamine II] | minor active fraction | – | – | – | – | – | – | – | – | – | – | – | – | – | – |
| CC1(C)S[C@@H]2[C@H](NC(=O)[C@H](N)c3ccccc3)C(=O)N2[C@H]1C(=O)O [Ampicillin] | – | high dosage | 12.5 µg/mL (≈ 35.8 µM) | 100 µg/mL (≈ 286 µM) | 25 µg/mL (≈ 71.5 µM) | > 500 µg/mL | > 800 µg/mL | 25 µg/mL (≈ 71.5 µM) | > 800 µg/mL | 400 µg/mL (≈ 1140 µM) | > 800 µg/mL | 125 µg/mL (≈ 358 µM) | 15.6 µg/mL (≈ 44.6 µM) | > 800 µg/mL | 800 µg/mL (≈ 2290 µM) |
| CN(C)[C@@H]1C(O)=C(C(N)=O)C(=O)[C@@]2(O)C(O)=C3C(=O)c4c(O)cccc4[C@@](C)(O)[C@H]3C[C@@H]12 [Tetracycline] | – | – | – | 6.2 µg/mL (≈ 14 µM) | 0.75 µg/mL (≈ 1.69 µM) | 6.2 µg/mL (≈ 14 µM) | 12.5 µg/mL (≈ 28.1 µM) | 3.1 µg/mL (≈ 6.98 µM) | 50 µg/mL (≈ 113 µM) | – | 3.1 µg/mL (≈ 6.98 µM) | 6.2 µg/mL (≈ 14 µM) | 3.1 µg/mL (≈ 6.98 µM) | 6.2 µg/mL (≈ 14 µM) | 12.5 µg/mL (≈ 28.1 µM) |
| NC[C@H]1O[C@H](O[C@H]2[C@H](O)[C@@H](O[C@H]3O[C@H](CO)[C@@H](O)[C@H](N)[C@H]3O)[C@H](N)C[C@@H]2N)[C@H](O)[C@@H](O)[C@@H]1O [Kanamycin] | – | – | 12.5 µg/mL (≈ 25.8 µM) | 3.1 µg/mL (≈ 6.4 µM) | 6.2 µg/mL (≈ 12.8 µM) | 12.5 µg/mL (≈ 25.8 µM) | 6.2 µg/mL (≈ 12.8 µM) | 10 µg/mL (≈ 20.6 µM) | 400 µg/mL (≈ 826 µM) | 200 µg/mL (≈ 413 µM) | 3.1 µg/mL (≈ 6.4 µM) | 25 µg/mL (≈ 51.6 µM) | 6.2 µg/mL (≈ 12.8 µM) | 3.1 µg/mL (≈ 6.4 µM) | 200 µg/mL (≈ 413 µM) |
